Source: PubChem BioAssay AID256 (DTP/NCI, 2004)
Values joined by “and” are separate entries in the source; they are usually repeats but may differ in a detail not shown here. Identical values can stand only once. Inconclusive results and toxic doses are left out.

Test system: CD2F1 mice, L1210 leukemia ip, survival T/C
Test: NCI In Vivo Anticancer Drug Screen. Data for tumor model L1210 Leukemia (intraperitoneal) in CD2F1 (CDF1) mice
Conditions: higher = longer survival
Outline: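 Vehicle-treated tumor-bearing mice served as controls (C) for compound-treated mice (T). Reported figure is T divided by C.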

[1] = endpoint: mean survival time, dose: 100.0 mg/kg/injection, schedule: Q01DX009 (ip), vehicle: saline with Tween-80
[2] = endpoint: mean survival time, dose: 100.0 mg/kg/injection, schedule: Q04DX003 (ip), vehicle: saline with Tween-80
[3] = endpoint: mean survival time, dose: 200.0 mg/kg/injection, schedule: Q01DX009 (ip), vehicle: saline with Tween-80
[4] = endpoint: mean survival time, dose: 200.0 mg/kg/injection, schedule: Q04DX003 (ip), vehicle: saline with Tween-80
[5] = endpoint: mean survival time, dose: 400.0 mg/kg/injection, schedule: Q01DX009 (ip), vehicle: saline with Tween-80
[6] = endpoint: mean survival time, dose: 400.0 mg/kg/injection, schedule: Q04DX003 (ip), vehicle: saline with Tween-80

CCCNC(C)=O
T/C (endpoint: mean survival time, dose: 100.0 mg/kg/injection, schedule: Q04DX003 (ip), vehicle: saline): 97 % of control | T/C (endpoint: mean survival time, dose: 200.0 mg/kg/injection, schedule: Q04DX003 (ip), vehicle: saline): 97 % of control | T/C (endpoint: mean survival time, dose: 400.0 mg/kg/injection, schedule: Q04DX003 (ip), vehicle: saline): 100 % of control

[CH3][Sn]([CH3])([CH3])[CH2]CCBr
T/C (endpoint: mean survival time, dose: 0.39 mg/kg/injection, schedule: Q01DX009 (ip), vehicle: saline): 107 % of control | T/C (endpoint: mean survival time, dose: 0.78 mg/kg/injection, schedule: Q01DX009 (ip), vehicle: saline): 107 % of control | T/C (endpoint: mean survival time, dose: 50.0 mg/kg/injection, schedule: Q01DX009 (ip), vehicle: saline): 89 % of control

CCC1(OC(=O)CN2CCN(CCCO)CC2)C(=O)OCc2c1cc1n(c2=O)Cc2cc3ccccc3nc2-1 (stereo unspecified)
T/C (endpoint: median survival time, dose: 6.25 mg/kg/injection, schedule: Q04DX002 (ip), vehicle: water): 106 % of control | T/C (endpoint: median survival time, dose: 12.5 mg/kg/injection, schedule: Q04DX002 (ip), vehicle: water): 107 % of control and 108 % of control | T/C (endpoint: median survival time, dose: 25.0 mg/kg/injection, schedule: Q04DX002 (ip), vehicle: water): 121 % of control and 111 % of control | T/C (endpoint: median survival time, dose: 50.0 mg/kg/injection, schedule: Q04DX002 (ip), vehicle: water): 120 % of control | T/C (endpoint: median survival time, dose: 100.0 mg/kg/injection, schedule: Q04DX002 (ip), vehicle: water): 170 % of control

Cc1cc(C(=O)c2ccccn2)c2cc(Cl)cc(Cl)c2n1
T/C [1]: 93 % of control | T/C [2]: 88 % of control | T/C [3]: 91 % of control | T/C [4]: 94 % of control | T/C [5]: 87 % of control | T/C [6]: 94 % of control

C1OC1CO[C@@H]1CO[C@H]2[C@@H]1OC[C@H]2OCC1CO1 (stereo partly specified)
T/C (endpoint: mean survival time, dose: 12.5 mg/kg/injection, schedule: Q01DX009 (ip), vehicle: suspension in saline): 100 % of control

CN(C)C(C)(C)CC(C)(C)C
T/C [2]: 96 % of control

COc1ccc(NC(=O)Oc2c(C)cccc2C)cc1
T/C (endpoint: mean survival time, dose: 100.0 mg/kg/injection, schedule: Q04DX002 (ip), vehicle: saline with Tween-80): 97 % of control | T/C (endpoint: mean survival time, dose: 200.0 mg/kg/injection, schedule: Q04DX002 (ip), vehicle: saline with Tween-80): 97 % of control | T/C (endpoint: mean survival time, dose: 400.0 mg/kg/injection, schedule: Q04DX002 (ip), vehicle: saline with Tween-80): 101 % of control

NC(N)=N/N=C/c1ccc(Cl)cc1Cl
T/C (endpoint: mean survival time, dose: 8.0 mg/kg/injection, schedule: Q01DX Z (ip), vehicle: saline): 88 % of control | T/C (endpoint: mean survival time, dose: 16.0 mg/kg/injection, schedule: Q01DX Z (ip), vehicle: saline): 96 % of control | T/C (endpoint: mean survival time, dose: 31.0 mg/kg/injection, schedule: Q01DX Z (ip), vehicle: saline): 92 % of control | T/C (endpoint: mean survival time, dose: 62.0 mg/kg/injection, schedule: Q01DX Z (ip), vehicle: saline): 95 % of control

CCOC(=O)C1C(=O)N(c2ccccc2)C(=O)N1C (stereo unspecified)
T/C (endpoint: mean survival time, dose: 12.5 mg/kg/injection, schedule: Q01DX009 (ip), vehicle: water): 94 % of control | T/C (endpoint: mean survival time, dose: 25.0 mg/kg/injection, schedule: Q01DX009 (ip), vehicle: water): 93 % of control | T/C (endpoint: mean survival time, dose: 50.0 mg/kg/injection, schedule: Q01DX009 (ip), vehicle: water): 94 % of control | T/C (endpoint: mean survival time, dose: 100.0 mg/kg/injection, schedule: Q01DX009 (ip), vehicle: water): 98 % of control | T/C (endpoint: mean survival time, dose: 200.0 mg/kg/injection, schedule: Q01DX009 (ip), vehicle: water): 100 % of control

O=C1C=CC(=O)C=C1 (tested in a mixture with another compound)
T/C (endpoint: mean survival time, dose: 1.0 mg/kg/injection, schedule: Q01DX009 (ip), vehicle: saline sonified): 98 % of control | T/C (endpoint: mean survival time, dose: 1.0 mg/kg/injection, schedule: Q04DX003 (ip), vehicle: saline with Tween-80): 97 % of control | T/C (endpoint: mean survival time, dose: 2.0 mg/kg/injection, schedule: Q01DX009 (ip), vehicle: saline sonified): 94 % of control | T/C (endpoint: mean survival time, dose: 2.0 mg/kg/injection, schedule: Q04DX003 (ip), vehicle: saline with Tween-80): 95 % of control | T/C (endpoint: mean survival time, dose: 3.0 mg/kg/injection, schedule: Q01DX009 (ip), vehicle: saline sonified): 98 % of control | T/C (endpoint: mean survival time, dose: 3.0 mg/kg/injection, schedule: Q04DX003 (ip), vehicle: saline with Tween-80): 95 % of control | T/C (endpoint: mean survival time, dose: 6.0 mg/kg/injection, schedule: Q01DX009 (ip), vehicle: saline sonified): 90 % of control | T/C (endpoint: mean survival time, dose: 6.0 mg/kg/injection, schedule: Q04DX003 (ip), vehicle: saline with Tween-80): 97 % of control

O=S(=O)(Nc1ccc(NS(=O)(=O)c2ccccc2)c2ccccc12)c1ccccc1
T/C [2]: 97 % of control | T/C [4]: 91 % of control | T/C [6]: 96 % of control

CCCCCCCCCCC(=O)CCCCCC
T/C (endpoint: mean survival time, dose: 100.0 mg/kg/injection, schedule: Q04DX003 (ip), vehicle: other): 89 % of control | T/C (endpoint: mean survival time, dose: 200.0 mg/kg/injection, schedule: Q04DX003 (ip), vehicle: other): 92 % of control | T/C (endpoint: mean survival time, dose: 400.0 mg/kg/injection, schedule: Q04DX003 (ip), vehicle: other): 118 % of control

O=[N+]([O-])c1ccc2c([N+](=O)[O-])cc(O)cc2c1
T/C (endpoint: mean survival time, dose: 100.0 mg/kg/injection, schedule: Q01DX001 (ip), vehicle: saline with Tween-80): 95 % of control | T/C [1]: 96 % of control | T/C (endpoint: mean survival time, dose: 200.0 mg/kg/injection, schedule: Q01DX001 (ip), vehicle: saline with Tween-80): 105 % of control | T/C [3]: 96 % of control | T/C (endpoint: mean survival time, dose: 400.0 mg/kg/injection, schedule: Q01DX001 (ip), vehicle: saline with Tween-80): 100 % of control | T/C [5]: 98 % of control
